Reference: US10981958B2, “Peptide modulator of purinergic receptors” (priority 2016, dated 2021)
Where no end group is shown, it is not given here.

Tests used:
P2X2/3 receptors [1] = target: T1, P2X2/3 receptors (Rattus norvegicus, UniProt P49653+P49654); settings: agonist sensitivity, dorsal root ganglia neurons; read-out: sensitivity of P2X2/3 receptor to agonist (Kd); cited from earlier work
T1 construct: In the membranes of dorsal root ganglia, along with P2X3 receptors, P2X2 and P2X2/3 receptors are also found; endogenous in cells; host or cells: acutely isolated dorsal root ganglion neurons of 9-12-day Wistar rats
T1 sequence (P49653 1-472): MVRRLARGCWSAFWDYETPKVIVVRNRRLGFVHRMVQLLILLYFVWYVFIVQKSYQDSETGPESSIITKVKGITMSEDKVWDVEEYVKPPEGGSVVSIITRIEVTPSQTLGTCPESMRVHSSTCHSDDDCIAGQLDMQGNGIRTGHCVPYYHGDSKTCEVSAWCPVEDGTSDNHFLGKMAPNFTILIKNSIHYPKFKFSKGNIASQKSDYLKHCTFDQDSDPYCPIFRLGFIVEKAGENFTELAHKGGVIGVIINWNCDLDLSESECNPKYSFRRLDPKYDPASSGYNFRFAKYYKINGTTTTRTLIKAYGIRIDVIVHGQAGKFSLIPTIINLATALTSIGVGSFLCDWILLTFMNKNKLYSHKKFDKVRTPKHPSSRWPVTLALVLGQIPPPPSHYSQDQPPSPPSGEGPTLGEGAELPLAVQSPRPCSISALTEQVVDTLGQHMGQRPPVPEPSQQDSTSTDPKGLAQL
T1 sequence (P49654 1-397): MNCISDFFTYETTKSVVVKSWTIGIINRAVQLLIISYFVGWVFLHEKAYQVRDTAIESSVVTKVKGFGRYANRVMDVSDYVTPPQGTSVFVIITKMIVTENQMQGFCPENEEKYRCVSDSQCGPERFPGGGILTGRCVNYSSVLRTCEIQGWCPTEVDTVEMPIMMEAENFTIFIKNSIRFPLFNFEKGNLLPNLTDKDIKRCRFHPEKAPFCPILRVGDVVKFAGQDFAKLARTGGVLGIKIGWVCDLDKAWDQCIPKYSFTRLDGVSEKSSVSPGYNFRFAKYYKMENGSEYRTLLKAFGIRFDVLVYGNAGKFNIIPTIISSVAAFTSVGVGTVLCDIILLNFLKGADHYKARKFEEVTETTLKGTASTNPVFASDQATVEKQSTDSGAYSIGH

P2X2 receptors [2] = target: T2, P2X2 receptors (Rattus norvegicus, UniProt P49653); settings: agonist activation; cited from earlier work
T2 construct: In the membranes of dorsal root ganglia, along with P2X3 receptors, P2X2 and P2X2/3 receptors are also found; endogenous in cells; host or cells: acutely isolated dorsal root ganglion neurons of 9-12-day Wistar rats
T2 sequence (P49653 1-472): T1 sequence (P49653 1-472)

P2X2/3 receptors [3] = target: T1, P2X2/3 receptors; experiment: Whole-cell patch clamp of P2X2/3-mediated currents in rat dorsal root ganglia neurons; format: cell-based; settings: PT6 50 nM (FIG. 2)
Procedure: (§1) In the membranes of dorsal root ganglia, along with P2X3 receptors, P2X2 and P2X2/3 receptors are also found [Burgard E. C. et al. P2X receptor-mediated ionic currents in dorsal root ganglion neurons//J. Neurophysiol., 1999, V. 82, P. 1590-1598]. The time for exit of P2X3 receptors from desensitization is very large compared to P2X2 and P2X2/3 receptors. With the agonist application for 1 min, all observed responses, except for the first, are mediated by P2X2 and P2X2/3 receptors. The sensitivity of P2X2/3 receptor to ATP and α,β-methylene-ATP is similar (Kd ˜30 μM), and the minimal concentration of α,β-methylene-ATP necessary for activation of P2X2 receptors is at least 100 μM. The equivalence of ionic currents observed in response to consecutive application of ATP and α,β-methylene-ATP indicates a significant predominance of P2X2/3 receptors on the cell membrane. In cells, which generate ionic currents of various amplitude, i.e. greater in response to ATP application, and very low in response to application of α,β-methylene-ATP, the membrane contains mainly P2X2 receptors. […] Therefore, it has been established suddenly that peptide PT6 acts selectively on the receptors of P2X3 isoform and is a selective antagonist of purinergic P2X3 receptors.

P2X2 receptors [4] = target: T2, P2X2 receptors; experiment: Whole-cell patch clamp of P2X2-mediated currents in rat dorsal root ganglia neurons; format: cell-based; settings: PT6 50 nM (FIG. 2)
Procedure: as §1

P2X3 receptors = P2X3 receptors (Rattus norvegicus, UniProt P49654); settings: PT6 50 nM; rat sensory (dorsal root ganglia) neurons; agonist CTP 100 μM; holding potential −60 mV
Procedure: Neurons for the experiments are isolated from dorsal root ganglia of 9-12-day Wistar rats. The ganglia are placed to a Petri dish filled with the extracellular solution (130 mM NaCl, 5 mM KCl, 2 mM CaCl2, 2 mM MgCl2, 20 mM HEPES, pH 7.4) at room temperature, and then transferred to the enzyme solution (1 mg of trypsin and 2 mg of collagenase in 2 ml of the extracellular solution) heated up to 35° C., and incubated for 10 min. Then the ganglia are rinsed thoroughly with a pure (without enzymes) extracellular solution in another Petri dish. Single cells are isolated from the rinsed ganglia using fine needles. A dish with single cells is transferred to the electrophysiological unit. The experiments begin after all cells are settled to the dish bottom in 30 min after isolation.
Electrophysiological tests are performed using the whole-cell configuration of the classic method of patch clamp and the approach of a rapid application of a substance (agonist), which binds to P2X3 receptors and induces ion channel opening. The electrophysiological setup consists of three parts: microscope; sample application system (“jumping table”; Pharma Robot, Ukraine); and recording system of the current flowing through channels in the cell plasma membrane. […] Currents are recorded at the holding potential of −60 mV and room temperature with a Model 2400 Patch Clamp Amplifier (A-M Systems, USA). […]

Molecule	Kd (P2X2/3 receptors [1]) [µM]	minimal concentration necessary for activation of P2X2 receptors (P2X2 receptors [2])	effect on ionic currents mediated by P2X2/3 receptors (P2X2/3 receptors [3])	effect on ionic currents mediated by P2X2 receptors (P2X2 receptors [4])	decrease of the current amplitude mediated by P2X3 receptors (inhibition of currents) (P2X3 receptors) [%]
Nc1ncnc2c1ncn2[C@@H]1O[C@H](COP(=O)(O)OP(=O)(O)OP(=O)(O)O)[C@@H](O)[C@H]1O [ATP, adenosine triphosphate]	~30	–	–	–	–
Nc1ncnc2c1ncn2[C@@H]1O[C@H](COP(=O)(O)CP(=O)(O)OP(=O)(O)O)[C@@H](O)[C@H]1O [α,β-methylene-ATP]	~30	at least 100 μM	–	–	–
GYCATKGIKCNDIHCCSGLKCDSKRKVCVKG (cysteine pairing not given here) [PT6]	–	–	does not affect	does not affect	80
